Among the test systems are NCI-H522 lung; SR leukemia; SW-620 colon; EKVX NSCLC; UACC-62 melanoma; HCT-116 colon; OVCAR-8 ovarian; HT29 colon; LOX IMVI melanoma.
Assay in all cases: NCI anticancer screen, dose series, 48 h

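Five concentrations, 48 hours, 96-well plates. The concentration for 50% growth inhibition is given as GI50. TGI is the concentration that stops growth completely.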

In the case of `COC1=CC(=O)c2c(cc3c(c2O)-c2c(OC)cc4cc5c(c(O)c4c2OC(=O)CC(C)(O)C3)C(=O)CC(C)(O)C5)C1=O` (configuration not stated), the TGI in the assay with NCI-H522 lung turned out to be 2.67 µM; with SR leukemia it was 5.07 µM; with SW-620 colon, 6.3 µM; with EKVX NSCLC it was 5.58 µM; with UACC-62 melanoma it was 2.57 µM; with HCT-116 colon, 7.58 µM. Further, the TGI came to 6.49 µM with OVCAR-8 ovarian, 6.59 µM in the assay with HT29 colon and 2.94 µM in the assay on LOX IMVI melanoma.
With `OCCCc1cnco1`, the TGI in the assay on SR leukemia, with SW-620 colon, with EKVX NSCLC, in the assay on UACC-62 melanoma, with HCT-116 colon and in the assay on OVCAR-8 ovarian was > 100 µM each time. For the same molecule, the TGI in the assay on HT29 colon and with LOX IMVI melanoma was > 100 µM in each case.
On to `O=C(N/C=C/C=C/Sc1ccccc1)OCc1ccccc1`, for which the TGI with NCI-H522 lung was 29.7 µM; in the assay on SR leukemia, > 100 µM; with SW-620 colon it was 32.8 µM; with EKVX NSCLC, 53.6 µM; in the assay with UACC-62 melanoma, 29.9 µM; in the assay on HCT-116 colon, 38.1 µM. Moreover, the figures for the TGI in the assay with OVCAR-8 ovarian, in the assay with HT29 colon and in the assay with LOX IMVI melanoma were 29.5 µM, 31.9 µM and 32 µM, respectively.
Regarding `Cc1cc2c(cc1C)[n+](=O)c(C(=O)CC(=O)C(=O)Nc1ccccc1C(C)C)c(C)n2[O-]`, the TGI in the assay on NCI-H522 lung, in the assay with SR leukemia, with SW-620 colon, with EKVX NSCLC, with UACC-62 melanoma and with HCT-116 colon was > 100 µM in each case. Moreover, the TGI in the assay on OVCAR-8 ovarian, in the assay with HT29 colon and in the assay on LOX IMVI melanoma was > 100 µM throughout.
`COc1cc2c(cc1OCCCCn1c(-c3cccs3)nc3ccccc31)N=C[C@@H]1CCCN1C2=O`: the GI50 was 1.04 µM with NCI-H522 lung; 0.45 µM with SR leukemia; 1.84 µM with SW-620 colon; 3.36 µM in the assay on EKVX NSCLC; 1.57 µM in the assay on UACC-62 melanoma; 1.75 µM in the assay with HCT-116 colon. The GI50 in the assay on OVCAR-8 ovarian is 2.58 µM; in the assay with HT29 colon it was 1.97 µM; with LOX IMVI melanoma it was 0.789 µM. Further, the TGI is 3.14 µM with NCI-H522 lung; > 100 µM in the assay on SR leukemia; 10.3 µM in the assay with SW-620 colon; 11.1 µM in the assay with EKVX NSCLC; 3.08 µM in the assay with UACC-62 melanoma; > 100 µM with OVCAR-8 ovarian. The TGI in the assay on HT29 colon was 14.6 µM; in the assay on LOX IMVI melanoma it was 3.93 µM.
In the case of `O=C([O-])CCc1ccccc1.O=C([O-])CCc1ccccc1.O=C([O-])CCc1ccccc1.O=C([O-])CCc1ccccc1.[Mo+2].[Mo+2]`, the GI50 in the assay on SR leukemia, with SW-620 colon, in the assay with EKVX NSCLC, in the assay with UACC-62 melanoma, with HCT-116 colon and in the assay on OVCAR-8 ovarian was > 100 µM throughout. For the same molecule, the GI50 with HT29 colon and in the assay with LOX IMVI melanoma was > 100 µM in each case. Also, the TGI in the assay with SR leukemia, with SW-620 colon, in the assay with EKVX NSCLC, in the assay with UACC-62 melanoma, with HCT-116 colon and with OVCAR-8 ovarian was > 100 µM in each case. Further, the TGI in the assay on HT29 colon and in the assay on LOX IMVI melanoma was > 100 µM each time.
Turning to `CC(C)(CN1CCCCC1)C(=O)CC(SCCN)c1ccc(Cl)cc1` (configuration not stated), the TGI was determined as 4.8 µM with NCI-H522 lung; 3.94 µM in the assay with SW-620 colon; 4.53 µM in the assay with EKVX NSCLC; 3.56 µM with UACC-62 melanoma; 7.61 µM in the assay with HCT-116 colon; 5.45 µM in the assay with OVCAR-8 ovarian. In addition, the TGI in the assay with HT29 colon came out at 5.07 µM; in the assay on LOX IMVI melanoma, 4.85 µM.
Consider `N#Cc1c(-c2ccccc2)cc(-c2cccs2)c(C#N)c1N`, for which the TGI in the assay with NCI-H522 lung, in the assay with SW-620 colon, in the assay with EKVX NSCLC, in the assay on HCT-116 colon, in the assay on OVCAR-8 ovarian and in the assay with HT29 colon was > 100 µM throughout. The TGI in the assay on LOX IMVI melanoma is > 100 µM.
For the molecule `CCc1nc2ccccc2c(=O)n1/N=C(\N=Nc1ccc(Cl)cc1)c1ccccc1`, the TGI in the assay on NCI-H522 lung is > 69.3 µM; in the assay on SW-620 colon, > 100 µM; in the assay with EKVX NSCLC, 75.2 µM; with UACC-62 melanoma, > 100 µM; with HCT-116 colon, 64.5 µM; with OVCAR-8 ovarian it was > 100 µM. The TGI amounted to 36.9 µM in the assay with HT29 colon and 40.5 µM with LOX IMVI melanoma.
For `Fc1ccc(C2SCc3nc4ccccc4n32)cc1F` (configuration not stated), the TGI in the assay on NCI-H522 lung is 61.7 µM; in the assay on SW-620 colon, > 100 µM; in the assay with EKVX NSCLC it was > 100 µM; in the assay with UACC-62 melanoma it was > 100 µM; in the assay on HCT-116 colon, > 100 µM; in the assay with OVCAR-8 ovarian, > 100 µM.
As to `C#CCn1c(=O)c2cccnc2n(CC#C)c1=O`, the TGI with NCI-H522 lung, in the assay with SR leukemia, in the assay on SW-620 colon, with HCT-116 colon, with HT29 colon and with LOX IMVI melanoma was > 100 µM in each case.
In the case of `COC(=O)c1nc(C(=O)OC)c2c([nH]c3ccccc32)c1C(=O)OC`, the TGI in the assay with SR leukemia, with SW-620 colon, with UACC-62 melanoma, in the assay on HCT-116 colon, with OVCAR-8 ovarian and in the assay with HT29 colon was > 100 µM each time. For the same molecule, in the assay with LOX IMVI melanoma, the TGI is > 100 µM.
With `NC(=S)N/N=C(\CCC(=O)Nc1ccccc1[N+](=O)[O-])CC(=O)c1ccco1`, the TGI with NCI-H522 lung, in the assay on SR leukemia, in the assay with SW-620 colon, in the assay with EKVX NSCLC, in the assay with UACC-62 melanoma and in the assay on HCT-116 colon was > 100 µM throughout. Also, the TGI with OVCAR-8 ovarian, with HT29 colon and with LOX IMVI melanoma was > 100 µM each time.
Consider `CC(=O)SC(SC(C)=O)SC(C)=O`, for which the TGI is 45.2 µM with NCI-H522 lung; > 100 µM in the assay on SW-620 colon; > 100 µM in the assay with EKVX NSCLC; > 100 µM in the assay on UACC-62 melanoma; > 100 µM with HCT-116 colon; > 100 µM with OVCAR-8 ovarian. For the same molecule, the TGI with HT29 colon and in the assay with LOX IMVI melanoma was > 100 µM throughout.

(Values after PubChem BioAssay (NCI).)
